These results are taken from ChEMBL document CHEMBL1149597, “Structure-activity relationships of semisynthetic mumbaistatin analogs” (Bioorg Med Chem, 2007).

The source made the active and inactive calls. The rule behind the calls is not given here.

For assay [1], the target named is T1, Glucose-6-phosphate exchanger SLC37A4 (Homo sapiens, UniProt O43826).
T1 sequence (O43826 whole entry): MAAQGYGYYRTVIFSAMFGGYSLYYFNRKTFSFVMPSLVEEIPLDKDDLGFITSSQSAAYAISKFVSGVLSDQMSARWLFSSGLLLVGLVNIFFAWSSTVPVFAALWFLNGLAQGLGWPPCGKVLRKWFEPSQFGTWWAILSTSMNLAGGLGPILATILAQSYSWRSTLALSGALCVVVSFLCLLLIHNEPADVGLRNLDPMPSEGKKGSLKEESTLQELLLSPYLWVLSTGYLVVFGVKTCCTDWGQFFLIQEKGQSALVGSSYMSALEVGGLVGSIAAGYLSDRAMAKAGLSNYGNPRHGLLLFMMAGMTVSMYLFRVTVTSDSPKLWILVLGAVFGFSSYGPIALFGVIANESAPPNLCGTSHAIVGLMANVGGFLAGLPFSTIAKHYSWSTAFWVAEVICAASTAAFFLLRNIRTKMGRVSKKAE
As to the kind of experiment: (§1) Inhibition of glucose 6 phosphate translocase 1.

Assay [2] concerns the target T2, Glucose-6-phosphate exchanger SLC37A4 (Homo sapiens) (UniProt O43826).
T2 sequence (whole entry): T1 sequence (O43826 whole entry)
The assay is described as §1.

The next assay concerns Hepatocyte. The experiment in a line: Inhibition of glucagon-stimulated glucose production in rat hepatocytes at 280 uM. Type of assay: functional.

With `O=C(O)CC(O)CCC(=O)c1cccc(O)c1C(=O)c1c(C(=O)O)c(O)cc2c1C(=O)c1c(O)cccc1C2=O` (centres undefined) [MUMBAISTATIN], half-maximal inhibition in assay [1] (IC50) required 0.005 µM.
Still for that read-out and setting: the figure for `CC/C=C/c1c(C(=O)O)c(OC)cc2c1C(=O)c1c(O)cccc1C2=O` is 12.5 µM; for `C=C(c1cccc(O)c1C(=O)O)c1c(O)cccc1C(CCCCC)OC` (centres undefined) it is 50 µM.
Turning to `Cc1c(C(=O)O)c(O)cc2c1C(=O)c1c(O)cccc1C2=O`, in assay [2], the outcome was inactive.
For the compound `C=CCCOc1ccccc1/C=C/c1c(C(=O)O)c(OC)cc2c1C(=O)c1c(OC)cccc1C2=O`, in assay [1], the IC50 worked out at 20 µM.
On the same count and under the same terms, the figure for `COc1cc2c(c(CSc3ccccc3)c1C(=O)O)C(=O)c1c(O)cccc1C2=O` is 50 µM.
`COc1cc2c(c(/C=C/c3cccc4ccccc34)c1C(=O)O)C(=O)c1c(O)cccc1C2=O` registered an inhibition at 280 µM in the assay on Hepatocyte of 40%. Also, 2.5 µM corresponded to half-maximal inhibition in assay [1] (IC50).
As for `COc1cc2c(c(/C=C/c3ccccc3)c1C(=O)O)C(=O)c1c(O)cccc1C2=O`, the IC50 in assay [1] amounted to 2.5 µM.
Same read-out and setting: the figure for `COc1cc2c(c(Cc3ccccc3)c1C(=O)O)C(=O)c1c(O)cccc1C2=O` is 20 µM.
On the same count and under the same terms, the figure for `O=C1c2cccc(O)c2C(=O)c2c1cc(O)c1c2CC(c2cccc3ccccc23)OC1=O` (centres undefined) is 5 µM; for `CCCCc1c(C(=O)O)c(O)cc2c1C(=O)c1c(O)cccc1C2=O` it is 100 µM.
Still for that read-out and setting: the figure for `CCCCCC/C=C/c1c(C(=O)O)c(OC)cc2c1C(=O)c1c(O)cccc1C2=O` is 50 µM; for `CCC(C)CCc1c(C(=O)O)c(O)cc2c1C(=O)c1c(O)cccc1C2=O` (centres undefined) it is 200 µM.

By IC50 is commonly meant the concentration that gives 50% inhibition. For orientation: inhibition means the share of the control response that was lost under treatment. A low value points to a weak effect.
